Data on three molecules can be found in article PMC10605370 (Biomolecules, 2023).

The target of test [1] is phosphorylation-null (PO4-null) rat D2 dopamine receptor, long isoform, fused to Rluc8 (rat) (UniProt P61169).
For test [2] the target is unchanged. The experiment in a line: FRET or BRET; GRK2 recruitment BRET in live HEK293 cells transfected with D2R-Rluc8 (donor) and GRK2-rGFP (acceptor), with or without compound 101; DPBS with 200 µM sodium metabisulphite, room temperature, 2 µM Prolume Purple; dopamine for 5 min. A general note: Bioluminescence resonance energy transfer reports proximity on the nanometre scale.

The target of test [3] is T1, Human D2RL (Homo sapiens, UniProt P14416). The experiment in a line: Go heterotrimer activation BRET assay. The class given is cell-based. Also on record: expressed in transfected cells; host or cells: HEK293 (parental or GRK knockout lines). As to conditions: Cmpd101 treatment of HEK293 cells. The protocol:
HEK293 cells were transiently transfected with the Gαo1-Rluc8 (35 mm plate: 0.1 μg; 100 mm plate: 0.5 μg), Gβ1 (35 mm plate: 0.9 μg; 100 mm plate: 4.5 μg), and Gγ2-mVenus (35 mm plate: 1 μg; 100 mm plate: 5 μg) constructs and the indicated untagged D2R construct (35 mm plate: 1 μg; 100 mm plate: 5 μg). […] Cells were then plated in 96-well white solid bottom plates (Greiner, Monroe, NC, USA) and incubated at room temperature for 45 min.

The next test concerns the target PO4-null D2R (Rattus norvegicus, UniProt P61169). The experiment in a line: β-arrestin2 recruitment BRET assay, PO4-null D2R. As to conditions: dose-dependent (Figure 4D). The class given is cell-based.
In test [4] the target is T1, Human D2RL. Nature of the test: GRK2-GFP recruitment BRET assay (D2R–GRK2 interactions). The class given is cell-based. On the set-up: expressed in transfected cells; host or cells: HEK293 (parental or GRK knockout lines). As to conditions: dose-dependent (Figure 3C).
The test system of another test is other GRK isoforms. As to conditions: selectively inhibits the GRK2/3 subfamily; cited from earlier work.
A further test has as its system D2R–GRK2 interactions. Also on record: method as in Pack et al., 2018 [21]. As to conditions: similar BRET assay; ref Pack et al., 2018 [21]; cited from earlier work.
The target of test [5] is T1, Human D2RL. The experiment in a line: β-arrestin2 recruitment BRET assay. Type of test: cell-based. As to conditions: dose-dependent; maximally effective concentrations (10–100 µM). Background: Arrestin recruitment assays detect the binding of arrestin to an activated receptor.
Test [6] concerns the target T1, Human D2RL. The experiment in a line: LYN BRET receptor internalization assay. The class given is cell-based. On the set-up: expressed in transfected cells; host or cells: HEK293 (parental or GRK knockout lines). As to conditions: dose-dependent; maximally effective concentration of 100 µM. The protocol: HEK293 cells were transiently transfected with the indicated D2R-Rluc8 (35 mm plate: 0.1 μg; 100 mm plate: 0.5 μg) and LYN-rGFP (35 mm plate: 1 μg; 100 mm plate: 5 μg) constructs and the indicated GRK construct (35 mm plate: 1 μg; 100 mm plate: 5 μg) or pcDNA control.

T1 sequence (P14416 whole entry): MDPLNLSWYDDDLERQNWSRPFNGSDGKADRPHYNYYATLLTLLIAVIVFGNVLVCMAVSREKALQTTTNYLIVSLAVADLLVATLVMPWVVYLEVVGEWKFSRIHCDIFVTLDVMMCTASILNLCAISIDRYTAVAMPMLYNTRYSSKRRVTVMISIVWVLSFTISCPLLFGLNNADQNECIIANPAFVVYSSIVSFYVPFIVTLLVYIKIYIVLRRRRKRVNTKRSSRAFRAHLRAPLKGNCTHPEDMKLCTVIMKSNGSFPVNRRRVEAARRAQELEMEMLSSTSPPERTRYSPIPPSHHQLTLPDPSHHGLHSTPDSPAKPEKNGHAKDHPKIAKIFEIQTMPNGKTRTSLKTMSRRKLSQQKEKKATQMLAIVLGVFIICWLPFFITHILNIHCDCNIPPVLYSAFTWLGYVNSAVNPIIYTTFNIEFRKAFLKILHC
Sequence of phosphorylation-null (PO4-null) rat D2 dopamine receptor, long isoform, fused to Rluc8 (rat) (P61169 whole entry, the tested form may be a part, canonical isoform): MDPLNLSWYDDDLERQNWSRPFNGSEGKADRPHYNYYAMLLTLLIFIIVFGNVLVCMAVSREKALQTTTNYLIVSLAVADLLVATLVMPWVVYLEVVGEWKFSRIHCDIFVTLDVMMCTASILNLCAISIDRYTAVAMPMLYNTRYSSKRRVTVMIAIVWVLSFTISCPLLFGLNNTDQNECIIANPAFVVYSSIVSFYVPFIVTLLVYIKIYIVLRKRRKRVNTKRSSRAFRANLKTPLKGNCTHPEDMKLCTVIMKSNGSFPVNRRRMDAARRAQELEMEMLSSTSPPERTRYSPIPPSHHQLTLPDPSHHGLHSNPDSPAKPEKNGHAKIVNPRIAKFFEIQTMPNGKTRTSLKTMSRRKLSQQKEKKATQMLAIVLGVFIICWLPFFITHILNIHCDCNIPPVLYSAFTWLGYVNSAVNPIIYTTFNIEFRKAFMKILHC
Sequence of GRK2-rGFP (P25098 whole entry): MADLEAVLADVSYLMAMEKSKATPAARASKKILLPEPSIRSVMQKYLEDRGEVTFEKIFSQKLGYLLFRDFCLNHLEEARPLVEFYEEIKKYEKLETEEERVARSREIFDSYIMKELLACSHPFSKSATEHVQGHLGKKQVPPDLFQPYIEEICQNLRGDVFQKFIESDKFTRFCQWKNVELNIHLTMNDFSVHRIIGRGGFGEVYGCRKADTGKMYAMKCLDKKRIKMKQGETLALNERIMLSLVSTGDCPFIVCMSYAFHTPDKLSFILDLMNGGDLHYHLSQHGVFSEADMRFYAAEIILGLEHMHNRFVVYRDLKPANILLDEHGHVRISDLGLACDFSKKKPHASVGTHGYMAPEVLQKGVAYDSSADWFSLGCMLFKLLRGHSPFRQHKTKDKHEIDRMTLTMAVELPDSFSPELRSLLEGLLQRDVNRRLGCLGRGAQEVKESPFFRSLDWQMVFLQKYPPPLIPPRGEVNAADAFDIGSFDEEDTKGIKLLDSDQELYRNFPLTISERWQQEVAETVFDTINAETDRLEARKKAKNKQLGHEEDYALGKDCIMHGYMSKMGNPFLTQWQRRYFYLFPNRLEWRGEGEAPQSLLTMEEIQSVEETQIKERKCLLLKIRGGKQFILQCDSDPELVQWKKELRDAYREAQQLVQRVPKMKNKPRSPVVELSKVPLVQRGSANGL
Sequence of PO4-null D2R (P61169 whole entry): as the sequence (P61169 whole entry, the tested form may be a part, canonical isoform) above
Sequence of β-arrestin2-mVenus (P32121 whole entry): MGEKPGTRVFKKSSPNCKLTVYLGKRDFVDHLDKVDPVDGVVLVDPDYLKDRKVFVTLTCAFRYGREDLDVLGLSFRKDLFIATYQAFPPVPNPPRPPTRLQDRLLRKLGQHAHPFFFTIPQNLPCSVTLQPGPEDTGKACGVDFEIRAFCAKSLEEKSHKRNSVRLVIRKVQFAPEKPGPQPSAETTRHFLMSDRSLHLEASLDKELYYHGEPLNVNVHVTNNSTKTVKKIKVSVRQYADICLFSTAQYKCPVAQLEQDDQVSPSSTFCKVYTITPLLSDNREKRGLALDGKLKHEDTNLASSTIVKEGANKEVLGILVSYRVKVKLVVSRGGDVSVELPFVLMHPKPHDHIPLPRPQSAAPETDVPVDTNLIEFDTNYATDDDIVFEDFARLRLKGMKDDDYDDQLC

Take “β-arrestin2-mVenus (from UniProt P32121 1-409) (natural protein)”: the dopamine-stimulated D2R internalization in HEK293 cells (LYN BRET), Emax as a percentage of WT D2R (β-arrestin not transfected in this assay) in test [1] was 100 % of WT D2R.
For the molecule “GRK2-rGFP (from UniProt P25098 1-689) (enzyme)”, the Emax of dopamine-stimulated BRET (% of WT D2R) in test [2] is 102 % of WT D2R.
As for `Cn1c(CNc2cccc(C(=O)NCc3ccccc3C(F)(F)F)c2)nnc1-c1ccncc1` [Cmpd101], the “effect on D2R signaling through G proteins (Go activation BRET assay)” value on Human D2RL [3] was “does not alter”. Further, the “decrease of β-arrestin2 recruitment to the phospho-null D2R” value at PO4-null D2R was “did not completely eliminate”. The “inhibition of GRK2–D2R interactions” value on Human D2RL [4] is recorded as “unable to completely block”. Also, the “affinity for other GRK isoforms” value in the test with other GRK isoforms is given as “lacks affinity”. Besides, the “effect on D2R–GRK2 interactions” value in the test with D2R–GRK2 interactions is “no effect”. Further, the “inhibition of dopamine-stimulated β-arrestin2 recruitment to the D2R” value at Human D2RL [5] was “unable to completely inhibit”. In addition, the “inhibition of dopamine-stimulated D2R internalization” value on Human D2RL [6] is “completely block”.
